Converted amounts (≈) assume the structure as drawn. Read-outs that look alike come from different tables or passages of the source. Where a SMILES comes first, the peptide text is derived from it. [ ]: non-standard residue; d: D form. Aib = CC(C)(N)C(=O)O
What was measured:
E. coli ATCC 25922 = test system: E. coli ATCC 25922
Protocol: (§1) Antimicrobial susceptibility was evaluated by the broth microdilution assay to determine the MIC as already described by Buommino et al.[71] The bacterial suspension in Muller Hinton (MH) at a concentration of 2 × 10^6 cell/mL in the mid-log phase was prepared. Aliquots of 50 μL of the bacterial suspension were added to 50 μL of MH containing serial 2-fold dilutions of the peptides (from 100 to 0.78 μM) that were previously prepared in a 96-well plate. […] Each measurement was performed in triplicate. MICs were obtained from three identical readings of four independent experiments. The antibiofilm activity of the tested peptides was evaluated as reported by Casciaro et al.[72] Microbial culture was grown at 37 °C until it reached an optical density (OD) of 0.8 (λ = 590 nm), and then it was diluted to a cell density of 1 × 10^6 colony-forming units (CFUs)/mL.

A. baumannii ATCC 19606 = test system: A. baumannii ATCC 19606
Protocol: as §1

S. aureus MDR #3 = test system: S. aureus MDR #3
Protocol: as §1

[1] = test system: S. epidermidis ATCC 12228
Protocol: as §1

S. aureus MDR #1 = test system: S. aureus MDR #1
Protocol: as §1

S. aureus MDR #4 = test system: S. aureus MDR #4
Protocol: as §1

S. aureus MDR #2 = test system: S. aureus MDR #2
Protocol: as §1

S. aureus ATCC 25923 = test system: S. aureus ATCC 25923
Protocol: as §1

P. aeruginosa ATCC 25853 = test system: P. aeruginosa ATCC 25853
Protocol: as §1

in vitro = in vitro ADME, bovine; details: serum
Protocol: The proteolytic stability of peptide 2 was evaluated in bovine serum (ThermoFisher Scientific, Milan, Italy). Peptide 2 was dissolved in sterile water (200 μM) and incubated with 50% bovine serum at 37 °C. The reaction mixture was incubated at different time intervals (1, 3, 4, 5, 16, and 24 h). An aliquot of the mixture was taken at each pre-established time point and MeCN was added to precipitate serum proteins. Then, the mixture was cooled to 4 °C, centrifuged for 15 min ([…]), and then the supernatant was checked by HPLC using a Phenomenex Jupiter column (4 μm Proteo 90 Å 250 × 21.20 mm) with a linear gradient of MeCN (0.1% TFA) and H2O (0.1% TFA) from 10 to 90% in 20 min and with a flow rate of 1 mL/min.[73] The percentage of the nondegraded peptide was calculated by integrating the peak area of each HPLC chromatogram. Data points are the mean ± SD of three different experiments.

HaCaT cells = test system: HaCaT cells; parameters: method as in PMID 26162435; details: previously described; cited from earlier work
[2] = MDR clinical isolate 13667073, broth microdilution, 16–18 h at 37 °C, three identical readings of four independent experiments
[3] = MDR clinical isolate 13164462, broth microdilution, 16–18 h at 37 °C, three identical readings of four independent experiments

| Compound | MIC (E. coli ATCC 25922) | MIC (A. baumannii ATCC 19606) | MIC (S. aureus MDR #3; MDR #3) | MIC [1] | MIC (S. aureus MDR #1; MDR #1) | MIC (S. aureus MDR #4) | MIC (S. aureus MDR #2; MDR #2) | MIC (S. aureus ATCC 25923; ATCC 25923) | MIC (P. aeruginosa ATCC 25853) | MIC (S. aureus MDR #3; [2]) | MIC (S. aureus MDR #1; [3]) | MIC (S. aureus MDR #2; MDR clinical isolate 13165968, broth microdilution, 16–18 h at 37 °C, three identical readings of four independent experiments) | MIC (S. aureus ATCC 25923; broth microdilution, Muller Hinton, 16–18 h at 37 °C, three identical readings of four independent experiments) | remaining at 1 h, 200 μM (in vitro) | remaining at 3 h, 200 μM (in vitro) | remaining at 4 h, 200 μM (in vitro) | remaining at 5 h, 200 μM (in vitro) | remaining at 16 h, 200 μM (in vitro) | remaining at 24 h, 200 μM (in vitro) | lethal dose causing 50% killing (LD50) (HaCaT cells) |
| --- | --- | --- | --- | --- | --- | --- | --- | --- | --- | --- | --- | --- | --- | --- | --- | --- | --- | --- | --- | --- |
| CC[C@H](C)[C@H](NC(=O)CN)C(=O)N[C@@H](Cc1ccccc1)C(=O)N[C@@H](CO)C(=O)N[C@@H](CCCCN)C(=O)N[C@@H](CC(C)C)C(=O)N[C@@H](C)C(=O)N1CCC[C@H]1C(=O)N[C@@H](CCCCN)C(=O)N[C@@H](CCCCN)C(=O)N[C@H](C(=O)N[C@@H](CCCCN)C(=O)N[C@@H](CC(N)=O)C(=O)N[C@@H](CC(C)C)C(=O)N[C@@H](CC(C)C)C(=O)N[C@H](C(=O)N[C@@H](CO)C(=O)NCC(=O)N[C@@H](CC(C)C)C(=O)N[C@@H](CCCCN)C(=O)NCC(N)=O)[C@@H](C)CC)[C@@H](C)CC [peptide 3] (H-GIFSKLAPKKIKNLLISGLKG-NH2) | 3.12 µM (≈ 6.94 µg/mL) | 1.56 µM (≈ 3.47 µg/mL) | >100 µM | 6.25 µM (≈ 13.9 µg/mL) | >100 µM | >100 µM | >100 µM | >100 µM | 6.25 µM (≈ 13.9 µg/mL) | – | – | – | – | – | – | – | – | – | – | – |
| CC[C@H](C)[C@H](NC(=O)CN)C(=O)N[C@@H](Cc1ccccc1)C(=O)N[C@@H](CO)C(=O)N[C@@H](CCCCN)C(=O)N[C@@H](CC(C)C)C(=O)N[C@@H](C)C(=O)NC(C)(C)C(=O)N[C@@H](CCCCN)C(=O)N[C@@H](CCCCN)C(=O)N[C@H](C(=O)N[C@@H](CCCCN)C(=O)N[C@@H](CC(N)=O)C(=O)N[C@@H](CC(C)C)C(=O)N[C@@H](CC(C)C)C(=O)N[C@H](C(=O)N[C@@H](CO)C(=O)NCC(=O)N[C@@H](CC(C)C)C(=O)N[C@@H](CCCCN)C(=O)NCC(N)=O)[C@@H](C)CC)[C@@H](C)CC [peptide 2] (H-GIFSKLA[Aib]KKIKNLLISGLKG-NH2) | 0.78 µM (≈ 1.73 µg/mL) | 0.78 µM (≈ 1.73 µg/mL) | – | 0.78 µM (≈ 1.73 µg/mL) | – | 6.25 µM (≈ 13.8 µg/mL) | – | – | 3.12 µM (≈ 6.9 µg/mL) | 12.5 µM (≈ 27.7 µg/mL) | 12.5 µM (≈ 27.7 µg/mL) | 12.5 µM (≈ 27.7 µg/mL) | 12.5 µM (≈ 27.7 µg/mL) | ~90% | ~75% | ~65% | ~40% | ~40% | ~15% | – |
| CC[C@H](C)[C@H](NC(=O)CN)C(=O)N[C@@H](Cc1ccccc1)C(=O)N[C@@H](CO)C(=O)N[C@@H](CCCCN)C(=O)N[C@@H](CC(C)C)C(=O)N[C@@H](C)C(=O)N1CCC[C@@H]1C(=O)N[C@@H](CCCCN)C(=O)N[C@@H](CCCCN)C(=O)N[C@H](C(=O)N[C@@H](CCCCN)C(=O)N[C@@H](CC(N)=O)C(=O)N[C@@H](CC(C)C)C(=O)N[C@@H](CC(C)C)C(=O)N[C@H](C(=O)N[C@@H](CO)C(=O)NCC(=O)N[C@@H](CC(C)C)C(=O)N[C@@H](CCCCN)C(=O)NCC(N)=O)[C@@H](C)CC)[C@@H](C)CC [peptide 4] (H-GIFSKLA[dP]KKIKNLLISGLKG-NH2) | 6.25 µM (≈ 13.9 µg/mL) | 12.5 µM (≈ 27.8 µg/mL) | >100 µM | 12.5 µM (≈ 27.8 µg/mL) | >100 µM | >100 µM | >100 µM | >100 µM | 25 µM (≈ 55.6 µg/mL) | – | – | – | – | – | – | – | – | – | – | – |
| CC[C@H](C)[C@H](NC(=O)CN)C(=O)N[C@@H](Cc1ccccc1)C(=O)N[C@@H](CO)C(=O)N[C@@H](CCCCN)C(=O)N[C@@H](CC(C)C)C(=O)N[C@@H](C)C(=O)NCC(=O)N[C@@H](CCCCN)C(=O)N[C@@H](CCCCN)C(=O)N[C@H](C(=O)N[C@@H](CCCCN)C(=O)N[C@@H](CC(N)=O)C(=O)N[C@@H](CC(C)C)C(=O)N[C@@H](CC(C)C)C(=O)N[C@H](C(=O)N[C@@H](CO)C(=O)NCC(=O)N[C@@H](CC(C)C)C(=O)N[C@@H](CCCCN)C(=O)NCC(N)=O)[C@@H](C)CC)[C@@H](C)CC [peptide 1] (H-GIFSKLAGKKIKNLLISGLKG-NH2) | 1.56 µM (≈ 3.41 µg/mL) | 1.56 µM (≈ 3.41 µg/mL) | – | 3.12 µM (≈ 6.82 µg/mL) | – | >100 µM | 100 µM (≈ 218 µg/mL) | >100 µM | 3.12 µM (≈ 6.82 µg/mL) | 100 µM (≈ 218 µg/mL) | >100 µM | – | – | – | – | – | – | – | – | > 50 µM |
